{"source": "patent US6869929B2", "about": "“Use of transcription factors for treating inflammation and other diseases” (Beth Israel Deaconess Medical Center, priority 2000, dated 2005)", "key": {"COL2A1 promoter": {"system": "COL2A1 promoter", "experiment": "COL2A1 promoter/intron deletion constructs, transient transfection in C-28/I2 cells", "format": "cell-based, human", "settings": "all five constructs -577, -530, -403, -131, -83/+127 bp, 18 h", "procedure": "The COL2A1 sequence spanning −577 to +3428 bp (Goldring M B, et al, J Cell Biochem 1994;54:85-99, 39) was cloned into the pGL2-basic (pGL2B) luciferase reporter gene vector (Promega,) and named pGL2-COL2/4.0. Deletion constructs containing −577/+125 bp, −131/+125 bp, −87/+125 bp were prepared by enzyme digestion of pGL2-COL2/4.0 using PstI, ApaI, and PuuII, followed by ligation. For the deletion constructs −45/+125 bp, −83/+7 bp, and −45/+7 bp, PCR products were generated as described (Osaki et al.) and cloned into the pGL2-Basic luciferase vector. These reporter constructs were used as templates to generate point mutations or internal deletions by PCR mutagenesis employing the oligonucleotides listed in FIG. 16 and the QuikChange™ Site-Directed Mutagenesis Kit (Stratagene, La Jolla, Calif.). DNA fragments containing point mutations were then cloned into the pGL2B vector and confirmed by DNA sequencing using a G2 primer on pGL2 DNA. Deletions were also made in the −577/+127 bp COL2A1 promoter construct using the ExSite™ PCR-Based Site-Directed Mutagenesis Kit (Stratagene).\nTransient transfection experiments were carried out in C-28/I2 cells using LipofectAMINE PLUS™ Reagent (Life Technologies). Cells were seeded in 6-well tissue culture plates at 3.5×10^5 cells/well in DMEM/F12 containing 10% FCS 24 h prior to transfection. For each well, 1 μg of COL2A1-luciferase construct, 6 μl of PLUS reagent and 92 μl of serum-free DMEM/F12 were mixed and incubated for 15 min at room temperature. LipofectAMINE+ reagent (4 μl) in 100 μl of serum-free medium was then added to each reaction mixture and incubation was continued for an additional 30 min at room temperature. Finally, the transfection mixture was combined with 800 μl of serum-free medium and the lipid-nucleic acid complex was transferred to the washed cell monolayer in each well. After incubation for 4 h at 37° C., the transfection mix was diluted with an equal volume of DMEM/F12 containing 2% Nutridoma-SP, and incubation continued for 18 h in the absence or presence of IL-1β. […] Cell lysates were prepared by extraction with 200 μl of Reporter Lysis Buffer (Promega) and the protein content was determined using the Coomassie Plus Protein Assay Reagent (PIERCE). Luciferase activities were determined by chemiluminescence assay using the Autolumat LB953 luminometer (EG&G Berthold, Oak Ridge, Tenn.), normalized to the amount of protein. Each data point was calculated as the mean±standard deviation for three independently transfected cultures from one representative of at least three experiments. […]\nTo localize the responses to IL-1β and ESE-1 in the COL2A1 promoter, we made several 5′-deletions of the −577/+127 bp promoter construct, which we had previously determined to be responsive to IL-1β."}, "COL2A1": {"system": "COL2A1", "experiment": "COL2A1 mRNA time course in C-28/I2 chondrocytes", "format": "cell-based, human", "settings": "by 2 h"}}, "data": [{"substance": "IL-1β: interleukin-1 beta, proinflammatory cytokine", "values": [{"measurement": "inhibition of COL2A1 promoter constructs", "setting": "COL2A1 promoter", "value": "at least 50%"}, {"measurement": "COL2A1 mRNA levels", "setting": "COL2A1", "value": "strongly inhibited"}]}]}
